Data published in ChEMBL document CHEMBL3046257, “Response of sweet maize (Zea mays L.) hybrids to halosulfuron” (Crop Prot, 2008).

What was measured:
Format in all cases: organism-based
[1] = tested on: Zea mays; experiment: Toxicity in Zea mays Empire (maize) assessed as visible injury at 25 g ai/ha applied shortly post-emergence at three to five-leaf stage using backpack sprayer measured after 14 days; details: in vivo, other, 336 h
[2] = tested on: Zea mays; experiment: Toxicity in Zea mays GH2298 (maize) assessed as visible injury at 50 g ai/ha applied shortly post-emergence at three to five-leaf stage using backpack sprayer measured after 14 days; details: in vivo, other, 336 h
[3] = tested on: Zea mays; experiment: Toxicity in Zea mays GH2684 (maize) assessed as cob size at 25 g ai/ha applied shortly post-emergence at three to five-leaf stage using backpack sprayer (reference value: 340 g); details: in vivo, other
[4] = tested on: Zea mays; experiment: Toxicity in Zea mays GSS9299 (maize) assessed as visible injury at 50 g ai/ha applied shortly post-emergence at three to five-leaf stage using backpack sprayer measured after 14 days; details: in vivo, other, 336 h
[5] = tested on: Zea mays; experiment: Toxicity in Zea mays GH2684 (maize) assessed as visible injury at 50 g ai/ha applied shortly post-emergence at three to five-leaf stage using backpack sprayer measured after 14 days; details: in vivo, other, 336 h
[6] = tested on: Zea mays; experiment: Toxicity in Zea mays GSS9299 (maize) assessed as visible injury at 25 g ai/ha applied shortly post-emergence at three to five-leaf stage using backpack sprayer measured after 28 days; details: in vivo, other, 672 h
[7] = tested on: Zea mays; experiment: Toxicity in Zea mays GH2041 (maize) assessed as visible injury at 50 g ai/ha applied shortly post-emergence at three to five-leaf stage using backpack sprayer measured after 7 days; details: in vivo, other, 168 h
[8] = tested on: Zea mays; experiment: Toxicity in Zea mays GSS9299 (maize) assessed as visible injury at 25 g ai/ha applied shortly post-emergence at three to five-leaf stage using backpack sprayer measured after 7 days; details: in vivo, other, 168 h
[9] = tested on: Zea mays; experiment: Toxicity in Zea mays GH2547 (maize) assessed as marketable yield at 50 g ai/ha applied shortly post-emergence at three to five-leaf stage using backpack sprayer (reference value: 16.7 T/ha ); details: in vivo, other
[10] = tested on: Zea mays; experiment: Toxicity in Zea mays GH2041 (maize) assessed as visible injury at 25 g ai/ha applied shortly post-emergence at three to five-leaf stage using backpack sprayer measured after 14 days; details: in vivo, other, 336 h
[11] = tested on: Zea mays; experiment: Toxicity in Zea mays GH2684 (maize) assessed as visible injury at 50 g ai/ha applied shortly post-emergence at three to five-leaf stage using backpack sprayer measured after 28 days; details: in vivo, other, 672 h
[12] = tested on: Zea mays; experiment: Toxicity in Zea mays GG446 (maize) assessed as visible injury at 25 g ai/ha applied shortly post-emergence at three to five-leaf stage using backpack sprayer measured after 28 days; details: in vivo, other, 672 h
[13] = tested on: Zea mays; experiment: Toxicity in Zea mays GG446 (maize) assessed as marketable yield at 50 g ai/ha applied shortly post-emergence at three to five-leaf stage using backpack sprayer (reference value: 20.0 T/ha ); details: in vivo, other
[14] = tested on: Zea mays; experiment: Toxicity in Zea mays GH2547 (maize) assessed as visible injury at 50 g ai/ha applied shortly post-emergence at three to five-leaf stage using backpack sprayer measured after 28 days; details: in vivo, other, 672 h
[15] = tested on: Zea mays; experiment: Toxicity in Zea mays Empire (maize) assessed as plant height at 50 g ai/ha applied shortly post-emergence at three to five-leaf stage using backpack sprayer measured after 21 days (Rvb =73 cm); details: in vivo, other, 504 h
[16] = tested on: Zea mays; experiment: Toxicity in Zea mays GH2041 (maize) assessed as marketable yield at 50 g ai/ha applied shortly post-emergence at three to five-leaf stage using backpack sprayer (reference value: 12.2 T/ha ); details: in vivo, other
[17] = tested on: Zea mays; experiment: Toxicity in Zea mays GH2298 (maize) assessed as visible injury at 25 g ai/ha applied shortly post-emergence at three to five-leaf stage using backpack sprayer measured after 28 days; details: in vivo, other, 672 h
[18] = tested on: Zea mays; experiment: Toxicity in Zea mays Empire (maize) assessed as cob size at 50 g ai/ha applied shortly post-emergence at three to five-leaf stage using backpack sprayer (reference value: 304 g); details: in vivo, other
[19] = tested on: Zea mays; experiment: Toxicity in Zea mays Empire (maize) assessed as visible injury at 25 g ai/ha applied shortly post-emergence at three to five-leaf stage using backpack sprayer measured after 28 days; details: in vivo, other, 672 h
[20] = tested on: Zea mays; experiment: Toxicity in Zea mays GH2684 (maize) assessed as visible injury at 25 g ai/ha applied shortly post-emergence at three to five-leaf stage using backpack sprayer measured after 28 days; details: in vivo, other, 672 h
[21] = tested on: Zea mays; experiment: Toxicity in Zea mays GH2684 (maize) assessed as visible injury at 50 g ai/ha applied shortly post-emergence at three to five-leaf stage using backpack sprayer measured after 7 days; details: in vivo, other, 168 h
[22] = tested on: Zea mays; experiment: Toxicity in Zea mays GH2547 (maize) assessed as marketable yield at 25 g ai/ha applied shortly post-emergence at three to five-leaf stage using backpack sprayer (reference value: 16.7 T/ha ); details: in vivo, other
[23] = tested on: Zea mays; experiment: Toxicity in Zea mays GG214 (maize) assessed as marketable yield at 25 g ai/ha applied shortly post-emergence at three to five-leaf stage using backpack sprayer (reference value: 14.2 T/ha ); details: in vivo, other
[24] = tested on: Zea mays; experiment: Toxicity in Zea mays GH2298 (maize) assessed as visible injury at 25 g ai/ha applied shortly post-emergence at three to five-leaf stage using backpack sprayer measured after 14 days; details: in vivo, other, 336 h
[25] = tested on: Zea mays; experiment: Toxicity in Zea mays GH2547 (maize) assessed as visible injury at 50 g ai/ha applied shortly post-emergence at three to five-leaf stage using backpack sprayer measured after 7 days; details: in vivo, other, 168 h
[26] = tested on: Zea mays; experiment: Toxicity in Zea mays GH2041 (maize) assessed as marketable yield at 25 g ai/ha applied shortly post-emergence at three to five-leaf stage using backpack sprayer (reference value: 12.2 T/ha ); details: in vivo, other
[27] = tested on: Zea mays; experiment: Toxicity in Zea mays GSS9299 (maize) assessed as marketable yield at 25 g ai/ha applied shortly post-emergence at three to five-leaf stage using backpack sprayer (reference value: 13.2 T/ha ); details: in vivo, other
[28] = tested on: Zea mays; experiment: Toxicity in Zea mays GH2298 (maize) assessed as visible injury at 25 g ai/ha applied shortly post-emergence at three to five-leaf stage using backpack sprayer measured after 7 days; details: in vivo, other, 168 h
[29] = tested on: Zea mays; experiment: Toxicity in Zea mays GSS9299 (maize) assessed as visible injury at 25 g ai/ha applied shortly post-emergence at three to five-leaf stage using backpack sprayer measured after 14 days; details: in vivo, other, 336 h
[30] = tested on: Zea mays; experiment: Toxicity in Zea mays GH2547 (maize) assessed as visible injury at 50 g ai/ha applied shortly post-emergence at three to five-leaf stage using backpack sprayer measured after 14 days; details: in vivo, other, 336 h
[31] = tested on: Zea mays; experiment: Toxicity in Zea mays GH2684 (maize)assessed as visible injury at 25 g ai/ha applied shortly post-emergence at three to five-leaf stage using backpack sprayer measured after 14 days; details: in vivo, other, 336 h
[32] = tested on: Zea mays; experiment: Toxicity in Zea mays GH2041 (maize) assessed as cob size at 50 g ai/ha applied shortly post-emergence at three to five-leaf stage using backpack sprayer (reference value: 285 g); details: in vivo, other
[33] = tested on: Zea mays; experiment: Toxicity in Zea mays GH2298 (maize) assessed as marketable yield at 25 g ai/ha applied shortly post-emergence at three to five-leaf stage using backpack sprayer (reference value: 16.9 T/ha ); details: in vivo, other

In the case of `COc1cc(OC)nc(NC(=O)NS(=O)(=O)c2c(C(=O)O)c(Cl)nn2C)n1` [HALOSULFURON], the Activity [1] was 3%, the Activity [2] was 4% and the Activity [3] was 316 g. The Activity [4] was 2%, the Activity [5] was 5% and the Activity [6] was 0%. It also gave an Activity [7] of 2%, an Activity [8] of 1% and a Crop_yield [9] of 15.7 tons/ha. It also gave an Activity [10] of 1%, an Activity [11] of 1% and an Activity [12] of 0%. The Crop_yield [13] was 19.6 tons/ha, the Activity [14] was 0% and the Activity [15] was 69 cm. For the same compound, the Crop_yield [16] was 11.3 tons/ha, the Activity [17] was 0% and the Activity [18] was 289 g. The Activity [19] was 0%, the Activity [20] was 0% and the Activity [21] was 7%. The Crop_yield [22] was 16.2 tons/ha, the Crop_yield [23] was 13.4 tons/ha and the Activity [24] was 2%. It also gave an Activity [25] of 2%, a Crop_yield [26] of 11.8 tons/ha and a Crop_yield [27] of 12.3 tons/ha. It also gave an Activity [28] of 3%, an Activity [29] of 2% and an Activity [30] of 0%. The Activity [31] was 3%, the Activity [32] was 267 g and the Crop_yield [33] was 16.4 tons/ha.
